# Source: patent US9408854B2, “Methods and systems for pharmacogenomic treatment of cardiovascular conditions” (ROSTAQUO S.P.A., priority 2009, dated 2016)
# Tested on: hypertensive patients
# Test: Pharmacogenomic study: change of office systolic blood pressure (DSBP5_0) after 5 weeks of rostafuroxin vs placebo, by genotype
# Assay type: in vivo, human
# Details: for response (average blood pressure change): individuals carrying all core SNPs; for Delta DSBP5_0: therapy vs placebo
# Experimental: A pharmacogenomic study was performed to ascertain the effect of genetic variations on an individual response to rostafuroxin. The sample for the pharmacogenomic study consisted of 342 individuals that were genotyped with the Human1M array from Illumina using Human1M Duo CHIP genotyping Bead Chip according to procedure described in [Ref. 10, 11, 12]. Among the individuals, 169 were administered the placebo treatment and 173 the active drug (rostafuroxin) in the first period (5 weeks) with demographics as in [Ref 13]. In particular, patients were randomized to one of the following oral doses of rostafuroxin: 0.05, 0.15, 0.5, 1.5, or 5 mg/day for 5 weeks. Each dose had to be compared to a placebo in a crossover design.
# For the above sample of individuals a genetic association analysis, was performed to associate the phenotype of the tested individuals with the SNPs detected in the individuals. The selected phenotype of interest was the blood pressure response. The SNPs selected for detection were the 1111170 SNPs on autosomal chromosomes of the individual.
# The genetic analysis was performed according to a quantitative genetic association design where the phenotype of interest is a quantitative variable (QT), and the variables (factors) affecting the distribution of the phenotype of interest are SNPs, therapy (placebo, rostafuroxin) and the SNP*therapy interaction.
# In particular, the quantitative phenotype selected for the statistical analyses was the difference in mmHg between the office Systolic Blood Pressure (SBP) at the end of first treatment period (SBP_5) and the office Systolic Blood Pressure at baseline after one month of run-in (SBP_0) and is herein also identified as DSBP5_0. The selected QT phenotype and other factors affecting distribution of the phenotype of interest were then analyzed according to the following quantitative trait interaction test Phenotype=SNP+therapy+SNP*therapy as illustrated in further details below.
# In particular, in Table 2 the descriptive statistics of DSBP5_0 for the entire sample and for the patients treated with placebo and rostafuroxin are listed. The rather modest basal level of SBP can be explained in view of the recruitment of patients with “mild” hypertension (SBP range 140-179 mmHg), required by the inclusion of a placebo arm.
# Those SNPs were further selected to identify the genotypes with the largest response to rostafuroxin compared to placebo by performing a Statistical ANOVA analysis using STATA software in placebo and rostafuroxin with DSBP5_0 as dependent variable and the candidate significant SNPs as independent variables. In particular, to select the genotypes of the interactions between two SNPs with the largest response to rostafuroxin compared to placebo, the Applicants performed an ANOVA statistics in placebo and rostafuroxin with DSBP5_0 as dependent variable and the interaction s between SNPs as independent variables. The Applicants report an example of this procedure in FIG. 5: interaction between rs8899 and rs4678. The Applicants selected the interaction between the genotype AA of rs8899 and the genotype BB of rs4678 because it presents the greatest remarkable decrement in the therapy group and not in the placebo group.
# In particular, to select the genotypes with the largest response to rostafuroxin compared to placebo, the Applicants performed an ANOVA statistics (oneway) in placebo and rostafuroxin with DSBP5_0 as dependent variable and the significant SNPs as independent variables.
# [1] = GWS SNP rs9361863 (LOC728360) genotype 2
# [2] = GWS SNP rs9893372 (ATP2A3) genotype 3
# [3] = GWS SNP rs10159569 (SH3PXD2A) genotype 1
# [4] = GWS SNP rs10493940 (SLC30A7) genotype 2
# [5] = GWS SNP rs10493940 (SLC30A7) genotype 3
# [6] = GWS SNP rs12513375 (TTC29) genotype 3
# [7] = GWS SNP rs12996186 (ARL5A) genotype 2
# [8] = GWS SNP rs16877182 (THSD7A) genotype 2
# [9] = GWS SNP rs16893522 (FAM46A) genotype 1
# [10] = GWS SNP rs16893522 (FAM46A) genotype 2
# [11] = GWS SNP rs17414954 (VCAM1) genotype 2
# [12] = individuals carrying the genetic variations
# [13] = interaction ADD2 rs4984 CC x TOP rs10502933 CT
# [14] = interaction HSD19 rs947130 GG x NEDD4L rs4309483 AA
# [15] = interaction HSD19 rs947130 GG x NKAIN3 rs4739037 GA
# [16] = interaction LSS2 rs914247 AA x ADD1 rs4961 GT + TT
# [17] = interaction LSS2 rs914247 AA x WNK1 rs880054 AG + GG
# [18] = interaction LSS2 rs914247 GA + AA x MDR2 rs1045642 CC
# [19] = interaction MDR2 rs1045642 TT x AGTR1 rs2131127 CC
# [20] = interaction MDR2 rs1045642 TT x HSD18 rs10923835 AT + TT
smiles,measurement,setting,value
"C[C@]12CC[C@H](O)C[C@H]1CC[C@@H]1[C@@H]2CC[C@]2(C)[C@@](O)(c3ccoc3)CC[C@]12O [rostafuroxin, 17β-(3-furyl)-5β-androstane-3β,14β,17α-triol]",DSBP5_0 therapy,GWS SNP rs9361863 (LOC728360) genotype 1,−15 mmHg
same,DELTA delta Therapy placebo,[1],8.833 mmHg
same,DSBP5_0 therapy,[1],−13.48 mmHg
same,DELTA delta Therapy placebo,[2],4.434 mmHg
same,DSBP5_0 therapy,[2],−10.91 mmHg
same,DELTA delta Therapy placebo,[3],10.63 mmHg
same,DSBP5_0 therapy,[3],−13.17 mmHg
same,DELTA delta Therapy placebo,[4],5.95 mmHg
same,DSBP5_0 therapy,[4],−12.13 mmHg
same,DELTA delta Therapy placebo,[5],28.95 mmHg
same,DSBP5_0 therapy,[5],−25 mmHg
same,DELTA delta Therapy placebo,[6],15.93 mmHg
same,DSBP5_0 therapy,[6],−19.18 mmHg
same,DELTA delta Therapy placebo,[7],17.96 mmHg
same,DSBP5_0 therapy,[7],−22.79 mmHg
same,DELTA delta Therapy placebo,[8],18.85 mmHg
same,DSBP5_0 therapy,[8],−21.67 mmHg
same,DELTA delta Therapy placebo,[9],27.03 mmHg
same,DSBP5_0 therapy,[9],−22.43 mmHg
same,DELTA delta Therapy placebo,[10],2.874 mmHg
same,DSBP5_0 therapy,[10],−1.138 mmHg
same,DELTA delta Therapy placebo,[11],7.158 mmHg
same,DSBP5_0 therapy,[11],−13.03 mmHg
same,Mean fall in blood pressure mmHg (DSBP5_0),"all never previously treated (NPT) patients on therapy (99 IDs), 5 weeks, no genotype selection",−5.831 mmHg
same,DSBP5_0 therapy,carriers rs914247 (LSS2) AA (CAND 1 SNP),−17 mmHg
same,DSBP5_0 therapy,"carriers rs2345088 TT (Illumina genotype 1), NPT patients, 5 weeks",−30.5 mmHg
same,DSBP5_0 therapy,"carriers rs2461911 AA (Illumina genotype 1), NPT patients, 5 weeks",−20.6 mmHg
same,DSBP5_0 therapy,"carriers rs5013093 TT (Illumina genotype 1), NPT patients, 5 weeks",−20.49 mmHg
same,DSBP5_0 therapy,"carriers rs12513375 TT (Illumina genotype 3), NPT patients, 5 weeks",−19.18 mmHg
same,DSBP5_0 therapy,"carriers rs16877182 C/T (Illumina genotype 2), NPT patients, 5 weeks",−21.67 mmHg
same,DSBP5_0 therapy,"carriers rs16893522 AA (Illumina genotype 1), NPT patients, 5 weeks",−22.43 mmHg
same,response (average blood pressure change),high dosages,−15 mmHg
same,average decrease in systolic blood pressure,"high doses (1.5; 5.0 mg/day), individuals carrying the genetic variations",−12 mmHg
same,average decrease in nightly blood pressure,[12],≥ 9 mmHg
same,average decrease in office blood pressure,[12],at least 15 mmHg
same,DSBP50 ROSTAFUROXIN,[13],.−19.21 mmHg
same,Delta Rosta_placebo,[13],24.73 mmHg
same,DSBP50 ROSTAFUROXIN,[14],.−17.85 mmHg
same,Delta Rosta_placebo,[14],28.15 mmHg
same,DSBP50 ROSTAFUROXIN,[15],.−18.18 mmHg
same,Delta Rosta_placebo,[15],15.72 mmHg
same,DSBP50 ROSTAFUROXIN,[16],.−22.32 mmHg
same,Delta Rosta_placebo,[16],27.49 mmHg
same,DSBP50 ROSTAFUROXIN,[17],.−16 mmHg
same,Delta Rosta_placebo,[17],16.48 mmHg
same,DSBP50 ROSTAFUROXIN,[18],.−16.91 mmHg
same,Delta Rosta_placebo,[18],12.96 mmHg
same,DSBP50 ROSTAFUROXIN,[19],.−16.9 mmHg
same,Delta Rosta_placebo,[19],14.34 mmHg
same,DSBP50 ROSTAFUROXIN,[20],.−17.40 mmHg
same,Delta Rosta_placebo,[20],17.30 mmHg
same,response (average blood pressure change),low dosages,−23 mmHg
same,average decrease in systolic blood pressure,"lower doses (0.05; 0.15; 0.5 mg/day), individuals carrying the genetic variations",approximately 18 mmHg
same,Delta DSBP5_0,carriers rs2345088 TT (genotype 1),"33.93, mmHg"
same,Delta DSBP5_0,carriers rs2461911 AA (genotype 1),"22.82, mmHg"
same,Delta DSBP5_0,carriers rs5013093 TT (genotype 1),"22.09, mmHg"
same,Delta DSBP5_0,carriers rs12513375 TT (genotype 3),"15.93, mmHg"
same,Delta DSBP5_0,carriers rs16877182 C/T (genotype 2),"18.85, mmHg"
same,Delta DSBP5_0,carriers rs16893522 AA (genotype 1),"27.03, mmHg"
same,tolerability and quality of life,"treated individuals, trial results",good tolerability and quality of life
